Counter-ions that a name gives are not always drawn. Like-named read-outs stand apart in the source and are kept apart here.

This test concerns SARS-CoV-2. Put plainly: microbe, parasite or virus in culture. Format: cell-based. The note with it: for Emax: read-out: Maximum confluence reached (%).
Setting [1] is: Severe acute respiratory syndrome coronavirus 2, 120 h.

For `c1cncc(CN2CCC(n3ncc4c(N5CCOCC5)nc(-c5ccc6[nH]ccc6c5)nc43)CC2)c1` [Compound 32, 6-(1H-Indol-5-yl)-4-(4-morpholinyl)-1-[1-(pyridin-3-ylmethyl)piperidin-4-yl]-1H-pyrazolo[3,4-d]pyrimidine], the Emax under setting [1] turned out to be 67.7%.
The same measure, in the same setting: in the case of `C[C@@H]1C[C@@H]([C@H](O)CC2CC(=O)NC(=O)C2)C(=O)[C@@H](C)C1` [Compound 58, 4-[2(R)-[(1S,3S,5S)-3,5-Dimethyl-2-oxocyclohexyl]-2-hydroxyethyl]piperidine-2,6-dione] it was 63.7%.
Still for that read-out and setting: as for `CC[C@@H](C(=O)[C@@H](C)[C@@H](O)[C@H](C)[C@@H]1O[C@@H]([C@@H](CC)C(=O)O)CC[C@@H]1C)[C@H]1O[C@]2(C=C[C@@H](O)[C@]3(CC[C@@](C)([C@H]4CC[C@](O)(CC)[C@H](C)O4)O3)O2)[C@H](C)C[C@@H]1C` [Compound 93, 2(R)-[6(R)-[5(R)-[(2S,5S,7R,9S,10S,12R,15R)-2-[5(R)-Ethyl-5-hydroxy-6(S)-methyltetrahydropyran-2(R)-yl]-15-hydroxy-2,10,12-trimethyl-1,6,8-trioxadispiro[4.1.5.3]pentadec-13-en-9-yl]-2(S)-hydroxy-1(S),3(S)-dimethyl-4-oxoheptyl]-5(S)-methyltetrahydropyran-2(R)-yl]butyric acid], the figure is 34.4%; as for `Nc1nc(N)c2nc(CNc3ccc(C(=O)N[C@@H](CCC(=O)O)C(=O)O)cc3)cnc2n1` [Compound 10, N-[4-(2,4-diamino-6-pteridinylmethylamino)benzolyl]-L-glutamic acid], 72.5%.
What is called IC50 is the concentration that inhibits the measured activity by half. As for `O=C(C1CC1)N1CC[C@@H](Cc2n[nH]c(=O)n2-c2ccc(-c3ccc4ccoc4c3)cc2)C1` [Compound 67, 4-[4-(1-Benzofuran-6-yl)phenyl]-5-[1-(cyclopropylcarbonyl)pyrrolidin-3(S)-ylmethyl]-3,4-dihydro-2H-1,2,4-triazol-3-one], under setting [1], 17 µM corresponded to half-maximal inhibition (IC50) and the Emax was determined as 31.1%.
For `O=C(O)c1ccc(N2C(=O)C(=Cc3ccc(-c4ccc([N+](=O)[O-])cc4)o3)C=C2c2ccccc2)cc1` [Compound 105, 4-[3-[5-(4-Nitrophenyl)furan-2-ylmethylene]-2-oxo-5-phenyl-2,3-dihydro-1H-pyrrol-1-yl]benzoic acid], in that order: 236 µM and 52.1%.
For `CC(C)C[C@H](NC(=O)CNC(=O)c1cc(Cl)ccc1Cl)B(O)O` [Compound 108, 1(R)-[2-(2,5-Dichlorobenzamido)acetamido]-3-methylbutylboronic acid], in that order: 135 µM and 30.8%.
For the compound `Nc1nc(NC[C@H]2CC[C@H](CNS(=O)(=O)c3cccc4ccccc34)CC2)nc2ccccc12` [Compound 97, N-[[trans-4-[[(4-Amino-2-quinazolinyl)amino]methyl]cyclohexyl]methyl]-1-naphthalenesulfonamide], the Emax under setting [1] turned out to be 39.2%.
On the same count and under the same terms, in the case of `CC(C)N1CCN(c2ccc(C(=O)c3c(-c4ccc(O)cc4)sc4cc(O)ccc34)cc2)CC1` [Compound 87, 1-[6-Hydroxy-2-(4-hydroxyphenyl)-1-benzothien-3-yl]-1-[4-(4-isopropylpiperazin-1-yl)phenyl]methanone] it was 41%.
Regarding `CCCCOCCOc1ccc(-c2ccc3c(c2)C=C(C(=O)Nc2ccc([S@@+]([O-])Cc4cncn4CCC)cc2)CCCN3CC(C)C)cc1` [Compound 65, (-)-(S)-8-[4-(2-Butoxyethoxy)phenyl]-1-isobutyl-N-[4-(1-propyl-1H-imidazol-5-ylmethylsulfinyl)phenyl]-1,2,3,4-tetrahydro-1-benzazocine-5-carboxamide], under setting [1], the IC50 was found to be 55 µM and the Emax came out at 70.9%.
“(4R,4aS)-18-Ethenyl-4,4a-dihydro-3,4-bis(methoxycarbonyl)-4a,8,14,19-tetramethyl-24H,26H-benzo[b]porphine-9,13-dipropanoic acid monomethyl ester [Compound 39]”: the “Maximum confluence reached (%)” value worked out at 89.5%. Besides, the IC50 (read-out: IC50) came out at 30 µM.
`NC(=NC1C2CC3CC(C2)CC1C3)Nc1ccc(I)cc1` (centres unmarked) [Compound 49, 2-(2-adamantyl)-1-(4-iodophenyl)guanidine]: under setting [1], the Emax turned out to be 81.8%.
In the case of `CCN(CC)Cc1cc(Nc2ccnc3cc(Cl)ccc23)ccc1O` [Compound 106, 4-(7-Chloroquinolin-4-ylamino)-2-(diethylaminomethyl)phenol hydrochloride], under setting [1], 21.5 µM corresponded to half-maximal inhibition (IC50) and the Emax is 37.5%.
Consider `CN1CCN(CCCN2c3ccccc3Sc3ccc(C(F)(F)F)cc32)CC1` [Compound 94, 10-[3-(4-Methylpiperazin-1-yl)propyl]-2-(trifluoromethyl)-10H-phenothiazine dihydrochloride], for which the Emax under setting [1] came to 38%.
As for `Cc1ccc(NC(=O)Nc2cc(C(F)(F)F)ccc2F)cc1Nc1ccc2c(c1)NC(=O)C2=Cc1ccc[nH]1` [Compound 92, 1-[2-Fluoro-5-(trifluoromethyl)phenyl]-3-[4-methyl-3-[2-oxo-3-(1H-pyrrol-2-ylmethylene)-2,3-dihydro-1H-indol-6-ylamino]phenyl]urea], under setting [1], the IC50 was 5.23 µM and the Emax was 75.5%.
As for `CC(C)(C)c1cc(C=C(C#N)C#N)cc(C(C)(C)C)c1O` [Compound 66, (3,5-Di-tert-butyl-4-hydroxybenzylidene)malononitrile], the Emax under setting [1] was found to be 47.6%.
On the same count and under the same terms, as for `COc1cc2c(NC3CCN(C4CCCCC4)CC3)nc(N3CCCN(C(C)C)CC3)nc2cc1OCCCN1CCCCC1` [Compound 59, N-(1-Cyclohexylpiperidin-4-yl)-6-methoxy-7-[3-(1-piperidinyl)propoxy]-2-[4-(propan-2-yl)perhydro-1,4-diazepin-1-yl]quinazolin-4-amine], the figure is 80.1%.
For `CC[C@@]1([C@@H]2O[C@@H]([C@H]3O[C@@](O)(COC(=O)Nc4ccccc4)[C@H](C)C[C@@H]3C)C[C@@H]2C)CC[C@H]([C@]2(C)CC[C@]3(C[C@H](O)[C@@H](C)[C@@H]([C@@H](C)[C@@H](OC)[C@H](C)C(=O)O)O3)O2)O1` [Compound 98, 4(S)-[(2S,5R,7S,8R,9S)-2-[(2S,2'R,3'S,5R,5'R)-2-Ethyl-5'-[6(R)-hydroxy-3(S),5(R)-dimethyl-6-(phenylaminocarbonyloxymethyl)tetrahydropyran-2(S)-yl]-3'-methylperhydro-2,2'-bifuran-5-yl]-9-hydroxy-2,8-dimethyl-1,6-dioxaspiro[4.5]dec-7-yl]-3(R)-methoxy-2(S)-methylpentanoic acid sodium salt], under setting [1], half-maximal inhibition (IC50) was put at 3.18 µM and the Emax amounted to 38.2%.
Take `CC1(N2CCC(n3c([C@@H]4CCCNC4)nc4ccccc43)CC2)CCCCCCC1` [Compound 51, 1-[1-(1-Methylcyclooctyl)piperidin-4-yl]-2-[3(R)-piperidinyl]-1H-benzimidazole]: the Emax under setting [1] was found to be 57.8%.
With `COc1cc2c(NC3CCN(C(C)C)CC3)nc(N3CCC(F)(F)CC3)nc2cc1OCCCN1CCCC1` [Compound 95, 2-(4,4-Difluoropiperidin-1-yl)-6-methoxy-N-[1-(propan-2-yl)piperidin-4-yl]-7-[3-(pyrrolidin-1-yl)propoxy]quinazolin-4-amine], under setting [1], the Emax was 31.1%.
For the compound `CCN(CC)CCCCNc1ncc2cc(-c3c(Cl)cccc3Cl)c(NC(=O)NC(C)(C)C)nc2n1` [Compound 107, 1-tert-Butyl-3-[6-(2,6-dichlorophenyl)-2-[4-(diethylamino)butylamino]pyrido[2,3-d]pyrimidin-7-yl]urea], under setting [1], the IC50 came to 145 µM and the Emax is 34.1%.
With `CC(C)(O)CNc1ncc(-c2ccnc(Nc3ccnc(Cl)c3)n2)c(CC2CC2)n1` [Compound 60, 1-[[2-[(2-chloro-4-pyridinyl)amino]-4'-(cyclopropylmethyl)[4,5'-bipyrimidin]-2'-yl]amino]-2-methyl-2-propanol], the Emax under setting [1] came to 45.6%.
For `C/C(=C\c1ccc(C(=O)O)cc1)c1ccc2c(c1)C(C)(C)CCC2(C)C` [Compound 26, 4-[2-(5,5,8,8-Tetramethyl-5,6,7,8-tetrahydronaphthalen-2-yl)-1(E)-propenyl]benzoic acid], under setting [1], the IC50 was determined as 33.7 µM and the Emax came to 106%.
`CC(C)(C)c1cc(C=C(C#N)C#N)cc(C(C)(C)C)c1O` [Compound 103, (3,5-Di-tert-butyl-4-hydroxybenzylidene)malononitrile] came in with an IC50 under setting [1] of 205 µM.
For the compound `Nc1nc(=S)c2ncn([C@@H]3O[C@H](CO)[C@@H](O)[C@H]3O)c2[nH]1` [Compound 55, 2-amino-9-[(2R,3R,4S,5R)-3,4-dihydroxy-5-(hydroxymethyl)oxolan-2-yl]-3H-purine-6-thione], the Emax under setting [1] stood at 51.5%.
The same measure, in the same setting: as for `CN(C)C(=O)C(CCN1CCC(O)(c2ccc(Cl)cc2)CC1)(c1ccccc1)c1ccccc1` [Compound 110, 4-[4-(4-Chlorophenyl)-4-hydroxypiperidin-1-yl]-N,N-dimethyl-2,2-diphenylbutyramide hydrochloride], the figure is 34.4%.
Take `CCC(C/C=C/c1ccccc1)(c1ccccc1)N(C)CC1CC1` (single isomer, unassigned; (+)) [Compound 89, (+)-N-(Cyclopropylmethyl)-N-[1-ethyl-1,4-diphenyl-3(E)-butenyl]-N-methylamine]: under setting [1], the IC50 stood at 11.2 µM and the Emax worked out at 58.3%.
For the compound `CN(C)c1cccc(-c2c3c(=O)n(-c4ccccc4Cl)[nH]c3cc(=O)n2C)c1` [Compound 13, 2-(2-Chlorophenyl)-4-[3-(dimethylamino)phenyl]-5-methyl-1H-pyrazolo[4,3-c]pyridine-3,6(2H,5H)-dione], under setting [1], half-maximal inhibition (IC50) required 7.57 µM and the Emax was determined as 102%.
Turning to `COc1ccc2cc1Oc1ccc(cc1)C[C@H]1c3cc(c(OC)cc3CCN1C)Oc1c(OC)c(OC)cc3c1[C@H](C2)N(C)CC3` [Compound 79, (1beta)-(S,S)-6,6',7,12-Tetramethoxy-2,2'-dimethylberbaman], under setting [1], the Emax was 99.6%.
On the same count and under the same terms, in the case of `N#Cc1cccc(C#N)c1-c1nc2c3ccc(Cl)cc3c3ccccc3c2[nH]1` [Compound 64, 2-(6-Chloro-1H-phenanthro[9,10-d]imidazol-2-yl)benzene-1,3-dicarbonitrile] it was 98.5%.
“(1R,2S,3R)-3-(6-Amino-9H-purin-9-yl)-1,2-cyclopentanediol [Compound 75]”: the “Maximum confluence reached (%)” value came out at 33.14%. Further, the IC50 (read-out: IC50) turned out to be 0.36 µM.

For the origin of these results see patent publication EP3964206A1, “COMPOUNDS FOR THE TREATMENT OF COVID-19” (priority 2020, dated 2022).
